tested on: AKT protein phosphorylated on serine 473 (P-AKT-S473) in PC3 human prostate carcinoma cells; test: pAKT expression in PC3 human prostate carcinoma cells, MSD Multi-spot Biomarker detection (Test A); format: cell-based; settings: Homo sapiens, PC-3
Procedure, shortened: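 Lysate pAKT-S473 measured by electrochemiluminescent sandwich immunoassay; inhibition versus cell-free background and DMSO-only wells, IC50 averaged over two experiments.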

`Cn1c(CC(=O)Nc2ccc(F)c(Cl)c2)nc(N2CCOC(CF)C2)cc1=O` (single isomer, unassigned; (+)) [Example 5b, (+)-N-(3-chloro-4-fluorophenyl)-2-[4-(2-fluoromethylmorpholin-4-yl)-1-methyl-6-oxo-1,6-dihydropyrimidin-2-yl]acetamide] gave an IC50 of 127 nM.

same assay, conditions: Homo sapiens, PC-3, PC3 cells, 1 to 2 h incubation, P-AKT-S473, absolute IC50, mean of two independent experiments

Compared with `CC1CN(C(=O)Cc2nc(N3CCOCC3)cc(=O)[nH]2)c2cccc(O)c21` (single isomer, unassigned; (-)) [Example 12c, (−)-2-{2-[4-hydroxy-3-methyl-2,3-dihydro-1H-indol-1-yl]-2-oxoethyl}-6-(morpholin-4-yl)pyrimidin-4(3H)-one], `O=C(Cc1nc(N2CCOCC2)cc(=O)[nH]1)N1CC2(CC2)c2ccccc21` [Example 1d, 6-(morpholin-4-yl)-2-[2-oxo-2-(spiro[cyclopropan-1,3′-indol]-1′(2′H)-yl)ethyl]pyrimidin-4(3H)-one] is 2.2-fold lower in IC50: 57 nM for the first, 26 nM for the second.

Compared with `CC1Cc2c(ccc(F)c2F)N1C(=S)Cc1nc(N2CCOCC2)c(F)c(=S)[nH]1` (stereo not drawn) [Example 9e, 2-[2-((+)-4,5-Difluoro-2-methyl-2,3-dihydroindol-1-yl)-2-thioxoethyl]-5-fluoro-6-morpholin-4-yl-3H-pyrimidine-4-thione], `CC1Cc2c(ccc(F)c2Cl)N1C(=O)Cc1nc(N2CCOCC2)c(F)c(=O)[nH]1` (stereo not shown) [Example 34a, 5-Fluoro-2-[2-(4-chloro-5-fluoro-2-methyl-2,3-dihydroindol-1-yl)-2-oxoethyl]-6-morpholin-4-yl-3H-pyrimidin-4-one] is 2-fold higher in IC50: 1 nM for the first, 2 nM for the second. The first is the more potent here.

First: O=C(Cc1nc(N2CCOCC2)cc(=O)[nH]1)N1CCc2c(-c3ccncc3)cccc21 [Example 10d, 6-(morpholin-4-yl)-2-{2-oxo-2-[4-(pyridin-4-yl)-2,3-dihydro-1H-indol-1-yl]ethyl}pyrimidin-4(3H)-one]
Second: O=C(Cc1nc(N2CCOCC2)cc(=O)[nH]1)N1CCc2c(-c3ccccc3F)cccc21 [Example 19d, 2-{2-[4-(2-fluorophenyl)-2,3-dihydro-1H-indol-1-yl]-2-oxoethyl}-6-(morpholin-4-yl)pyrimidin-4(3H)-one]
The IC50 of the first is 4.1-fold higher: 94 nM for the first, 23 nM for the second.

Compared with `O=C(Cc1nc(N2CCOCC2)c(F)c(=O)[nH]1)N1c2ccccc2C[C@@H]1CO` [Example 38a, 5-Fluoro-2-[2-((+)-2-hydroxymethyl-2,3-dihydroindol-1-yl)-2-oxoethyl]-6-morpholin-4-yl-3H-pyrimidin-4-one], `C[C@H]1Cc2ccccc2N1C(=O)Cc1nc(N2CCOC(CO)C2)cc(=O)[nH]1` (single isomer, unassigned; (+)) [Example 31b] is 7.3-fold lower in IC50: 1140 nM for the first, 156 nM for the second. The second is the more potent here.

First: CC1Cc2cc(F)ccc2N1C(=O)Cc1nc(N2CCOCC2)c(F)c(=O)n1C (stereo not drawn) [Example 14a, 5-fluoro-2-[2-((−)-5-fluoro-2-methyl-2,3-dihydroindol-1-yl)-2-oxoethyl]-3-methyl-6-morpholin-4-yl-3H-pyrimidin-4-one]
Second: CN1CCC2(CC1)CN(C(=O)Cc1nc(N3CCOCC3)cc(=O)[nH]1)c1ccccc12 [Example 11d, 2-[2-(1′-methylspiro[indole-3,4′-piperidin]-1(2H)-yl)-2-oxoethyl]-6-(morpholin-4-yl)pyrimidin-4(3H)-one]
The IC50 of the first is 2.1-fold higher: 55 nM for the first, 26 nM for the second.

`[2H]C1([2H])COCC([2H])([2H])N1c1cc(=O)[nH]c(CC(=O)N2CC(C)(C)c3ccccc32)n1` [Example 18b, 2-[2-(3,3-dimethyl-2,3-dihydroindol-1-yl)-2-oxoethyl]-6-morpholin(D4)-4-yl-3H-pyrimidin-4-one] and `CCCN1CCCC(c2cccc3c2CCN3C(=O)Cc2nc(N3CCOCC3)cc(=O)[nH]2)C1` (stereo not shown) [Example 7d, 6-(morpholin-4-yl)-2-{2-oxo-2-[4-(1-propylpiperidin-3-yl)-2,3-dihydro-4H-indol-1-yl]ethyl}pyrimidin-4(3H)-one] are within 1.5-fold of each other in IC50: 91 nM for the first, 102 nM for the second.

same assay, conditions: PC3 cells, 1 to 2 h incubation, P-AKT-S473, absolute IC50, mean of two independent experiments

Compared with `CC1Cc2cc(F)ccc2N1C(=O)Cc1nc(N2CCOCC2)cc(=O)[nH]1` (single isomer, unassigned; (-)) [Example 14c, (−)-2-{2-[5-fluoro-2-methyl-2,3-dihydro-1H-indol-1-yl]-2-oxoethyl}-6-(morpholin-4-yl)pyrimidin-4(3H)-one], `C[C@H]1Cc2ccccc2N1C(=O)Cc1nc(N2CCOCC2)cc(=O)[nH]1` [Example 19b, (+)-2-[2-(2-methyl-2,3-dihydroindol-1-yl)-2-oxoethyl]-6-morpholin(D4)-4-yl-3H-pyrimidin-4-one] is 8-fold higher in IC50: 2 nM for the first, 16 nM for the second.

`O=C(Cc1nc(N2CCOCC2)cc(=O)[nH]1)N1c2ccccc2CC1C1CC1` (single isomer, unassigned; (-)) [Example 35d, (−)-2-[2-(2-cyclopropyl-2,3-dihydroindol-1-yl)-2-oxoethyl]-6-morpholin-4-yl-3H-pyrimidin-4-one] and `CC1Cc2c(cccc2C(F)(F)F)N1C(=O)Cc1nc(N2CCOCC2)cc(=O)[nH]1` (single isomer, unassigned; (+)) [Example 36d, (+)-2-{2-[2-methyl-4-(trifluoromethyl)-2,3-dihydro-1H-indol-1-yl]-2-oxoethyl}-6-(morpholin-4-yl)pyrimidin-4(3H)-one] are the same in IC50: 5 nM for the first, 5 nM for the second.

Going from `O=C(Cc1nc(N2CCOC(CF)C2)cc(=O)[nH]1)N1CCc2c(F)cccc21` (single isomer, unassigned; (+)) [Example 7b, (+)-2-[2-(4-fluoro-2,3-dihydroindol-1-yl)-2-oxoethyl]-6-(2-fluoromethylmorpholin-4-yl)-3H-pyrimidin-4-one] to `CC1CN(c2cc(=O)[nH]c(CC(=O)N3CCc4c(F)cccc43)n2)CCO1` (single isomer, unassigned; (-)) [Example 9b, (−)-2-[2-(4-fluoro-2,3-dihydroindol-1-yl)-2-oxoethyl]-6-(2-methylmorpholin-4-yl)-3H-pyrimidin-4-one], the IC50 rises from 21 nM to 156 nM (7.4-fold).

Going from `CC1Cc2c(Br)cccc2N1C(=O)Cc1nc(N2CCOCC2)c(F)c(=O)[nH]1` (single isomer, unassigned; (+)) [Example 16a, (+)-2-{2-[4-bromo-2-methyl-2,3-dihydro-1H-indol-1-yl]-2-oxoethyl}-5-fluoro-6-(morpholin-4-yl)pyrimidin-4(3H)-one] to `CC1Cc2c(Cl)cccc2N1C(=O)Cc1nc(N2CCOCC2)c(F)c(=O)[nH]1` (stereo not shown) [Example 19a], the IC50 falls from 483 nM to 19 nM (25-fold).

First: CC1Cc2c(ccc(F)c2F)N1C(=O)Cc1nc(N2CCOCC2)c(F)c(=O)[nH]1 (stereo not drawn) [Example 21a, 2-[2-((+)-4,5-difluoro-2-methyl-2,3-dihydroindol-1-yl)-2-oxoethyl]-5-fluoro-6-morpholin-4-yl-3H-pyrimidin-4-one]
Second: CC1Cc2cc(F)c(F)cc2N1C(=O)Cc1nc(N2CCOCC2)c(F)c(=O)[nH]1 (stereo not drawn) [Example 13a, 2-[2-((−)-5,6-difluoro-2-methyl-2,3-dihydroindol-1-yl)-2-oxoethyl]-5-fluoro-6-morpholin-4-yl-3H-pyrimidin-4-one]
The IC50 of the first is 11-fold lower: 15 nM for the first, 162 nM for the second. The first is the more potent here.

Going from `CC1Cc2c(F)cccc2N1C(=O)Cc1nc(N2CCOCC2)c(F)c(=O)n1C` (stereo not drawn) [Example 23a, 5-fluoro-2-[2-((−)-4-fluoro-2-methyl-2,3-dihydroindol-1-yl)-2-oxoethyl]-3-methyl-6-morpholin-4-yl-3H-pyrimidin-4-one] to `CC1Cc2c(ccc(F)c2F)N1C(=O)Cc1nc(N2CCOCC2)cc(=O)n1C` (single isomer, unassigned; (-)) [Example 20c, (−)-2-{2-[4,5-difluoro-2-methyl-2,3-dihydro-1H-indol-1-yl]-2-oxoethyl}-3-methyl-6-(morpholin-4-yl)pyrimidin-4(3H)-one], the IC50 falls from 203 nM to 13 nM (16-fold). The second is the more potent here.

— patent US9133168B2, “Pyrimidine derivatives, preparation thereof, and pharmaceutical use thereof as akt(pkb) phosphorylation inhibitors” (SANOFI, priority 2010, dated 2015)
